# Laboratory results reported in publication PMC7070694, “Identification of New Peptides from Fermented Milk Showing Antioxidant Properties: Mechanism of Action” (Antioxidants, 2020).
# Peptide text beside a SMILES is read from it.
# What was measured:
# Caco-2 cell monolayer = test: Transepithelial transport through Caco-2 cell monolayers (Transwell); assay type: in vitro ADME; conditions: Caco-2 monolayer on Transwell, 21 days, TEER > 1100 Ω × cm^2, 75 µg peptide in 0.75 mL HBSS apical, 37 °C, RP-HPLC UV 220 nm, mean ± SD, n. d. = not detected with RP-HPLC; for RP-HPLC Estimation AP (%): 120 min after 30 min equilibration, apical compartment, % of total peptide added; for RP-HPLC Estimation BL (%): A-B, 120 min, basolateral compartment, % of initial peptide added apically
# Experimental: Caco-2 cells were obtained from DISCOG (University of Padova, Padova, Italy). The cells cultured in DMEM (high glucose) supplemented with 10% FBS, were used between 35 and 60 passages. In order to perform transepithelial transport, 8 × 10^4 cells were seeded on Transwell^© cell culture inserts (0.4 µm pore sizes, 12 mm diameter, 1.12 cm^2 grown surface; Corning Life Sciences, Tewksbury, MA, USA). Cells were grown, differentiated for 21 days and the monolayer integrity was estimated by transepithelial electrical resistance (TEER) (Millicell® ERS-2 volt-ohmmeter, EDM Millipore, Darmstadt, Germany) showing values higher than 1100 Ω × cm^2.
# The intestinal barrier crossing capacity of the fractions or synthetic peptides through Caco-2 cells monolayer was evaluated using Transwell® insert model according to Tonolo et al.. Briefly, after 21 days of culturing, Caco-2 cells differentiated forming a monolayer that delimited an upper part (apical compartment) and lower part (basolateral compartment). The monolayer was rinsed three times with Hank’s balanced salt solution (HBSS) and 10 mM D-glucose and equilibrated for 30 min at 37 °C. After, cells were incubated in the presence of 0.75 mL HBSS containing 150 µg fraction or 75 µg peptide in the apical chamber at 37 °C for 120 min. Samples collected from both compartments (apical and basolateral) at different times were centrifuged at 11,600× g, filtered with 0.45 µm filter, frozen and lyophilized. Subsequently, the obtained samples were dissolved in 100 µL of 0.1% TFA aqueous solution and evaluated by RP-HPLC and Matrix assisted laser desorption/ionization- time of flight/time of flight mass spectrometry (MALDI-TOF/TOF MS).
# The apical and basolateral compartments were evaluated in RP-HPLC using a column Onyx Monolithic C18 100 mm × 4.6 mm, LC column (Phenomenex, Torrance, CA, USA) with a Waters 2695 Separation Module (Milfold, MA, USA) with a Waters 996 Photodiode Array Detector. Separations were performed with a linear gradient from 0–60% ACN in the presence of 0.1% TFA over 20 min at a constant flow rate of 2 mL/min monitoring the peaks by UV detection (λ = 220 nm).
# Subsequently, the obtained fractions were analysed with a MALDI-TOF/TOF 4800 mass spectrometer (AB Sciex, Framingham, MA, USA). After an initial full MS scan, enlargements on the MS signals of interest were acquired. For the basolateral fractions, the samples, after lyophilisation, were dissolved in 50 µL of 25% ACN and 0.1% TFA. The analysis was then performed on 2 µL of these solutions mixed with 2 µL of peptide MALDI matrix α-cyano-4-hydroxycynnamic acid (10 mg/mL aqueous 70% acetonitrile/0.1% TFA). The following analytical conditions were set for MALDI-TOF spectra acquisition: positive ion reflector mode, initial mass range 500–3500 Da (the mass range was then adapted for each enlargement), variable laser intensity (3000–3800), shots/sub-spectrum 50, total shots/spectrum 1500 and accelerating voltage of 20 kV. Final data analysis and fragments identification were done on Data Explorer software (AB Sciex, Framingham, MA, USA), utilizing external mass calibration performed with mass peptide standards (Sigma-Aldrich, St Louis, MO, USA).
# In order to evaluate the intestinal crossing capacity of the four peptides, Transwell® insert model peptide absorption, was performed. […] After 10 min and 120 min, apical and basolateral compartments were collected and analyzed by RP-HPLC and mass spectrometry.
# [1] = MTT cell viability (cytotoxicity); assay type: cell-based; conditions: human, Caco-2 cells (1 × 10^4), synthetic peptides 0.05 mg/mL, no TbOOH, mean ± SD of at least three experiments, read-out: Percentage of Cell Viability, None (c)
RP-HPLC Estimation AP (%) (Caco-2 cell monolayer),RP-HPLC Estimation BL (%) (Caco-2 cell monolayer),SMILES,"viability at 24 h, 50 µg/mL [1]"
1.47 ± 0.19%,–,CC[C@H](C)[C@H](N)C(=O)N[C@H](C(=O)N[C@@H](CC(C)C)C(=O)N[C@@H](CC(N)=O)C(=O)N1CCC[C@H]1C(=O)N[C@@H](Cc1c[nH]c2ccccc12)C(=O)N[C@@H](CC(=O)O)C(=O)N[C@@H](CCC(N)=O)C(=O)N[C@H](C(=O)N[C@@H](CCCCN)C(=O)N[C@@H](CCCNC(=N)N)C(=O)O)C(C)C)C(C)C [I-11-R] (H-IVLNPWDQVKR-OH),–
0.55 ± 0.15%,–,CC(C)[C@H](NC(=O)[C@H](CCC(N)=O)NC(=O)[C@H](CC(=O)O)NC(=O)[C@H](Cc1c[nH]c2ccccc12)NC(=O)[C@@H]1CCCN1C(=O)[C@@H](N)CC(N)=O)C(=O)N[C@@H](CCCCN)C(=O)N[C@@H](CCCNC(=N)N)C(=O)O [N-8-R] (H-NPWDQVKR-OH),–
60.76 ± 8.83%,0.13 ± 0.04%,CSCC[C@H](NC(=O)[C@@H](NC(=O)[C@@H](NC(=O)[C@@H]1CCCN1C(=O)[C@H](CCC(N)=O)NC(=O)[C@H](C)NC(=O)[C@H](CCC(N)=O)NC(=O)[C@H](CS)NC(=O)[C@H](CO)NC(=O)[C@H](CCCCN)NC(=O)[C@H](C)NC(=O)[C@@H]1CCCN1C(=O)[C@@H](NC(=O)[C@@H](NC(=O)[C@@H](N)CC(N)=O)[C@@H](C)O)C(C)C)[C@@H](C)O)[C@@H](C)O)C(=O)O [N-15-M] (H-NTVPAKSCQAQPTTM-OH),108 ± 5.96%
–,0.11 ± 0.01%,CC[C@H](C)[C@H](NC(=O)[C@@H]1CCCN1C(=O)CNC(=O)[C@@H](N)CCC(N)=O)C(=O)N[C@H](C(=O)N[C@@H](CC(C)C)C(=O)N[C@@H](CC(N)=O)C(=O)N1CCC[C@H]1C(=O)N[C@@H](Cc1c[nH]c2ccccc12)C(=O)N[C@@H](CC(=O)O)C(=O)N[C@@H](CCC(N)=O)C(=O)O)C(C)C [Q-11-Q] (H-QGPIVLNPWDQ-OH),–
–,0.07 ± 0.05%,CC[C@H](C)[C@H](NC(=O)[C@@H]1CCCN1C(=O)CNC(=O)[C@@H](N)CCC(N)=O)C(=O)N[C@H](C(=O)N[C@@H](CC(C)C)C(=O)N[C@@H](CC(N)=O)C(=O)N1CCC[C@H]1C(=O)N[C@@H](Cc1c[nH]c2ccccc12)C(=O)N[C@@H](CC(=O)O)C(=O)N[C@@H](CCC(N)=O)C(=O)N[C@H](C(=O)N[C@@H](CCCCN)C(=O)O)C(C)C)C(C)C [Q-13-K] (H-QGPIVLNPWDQVK-OH),–
–,0.12 ± 0.03%,CSCC[C@H](NC(=O)[C@@H](NC(=O)[C@@H](NC(=O)[C@@H]1CCCN1C(=O)[C@H](CCC(N)=O)NC(=O)[C@H](C)NC(=O)[C@H](CCC(N)=O)NC(=O)[C@H](CS)NC(=O)[C@@H](N)CO)[C@@H](C)O)[C@@H](C)O)C(=O)O [S-9-M] (H-SCQAQPTTM-OH),–
8.97 ± 0.53%,0.30 ± 0.07%,CC[C@H](C)[C@H](NC(=O)[C@@H]1CCCN1C(=O)[C@H](CC(N)=O)NC(=O)[C@@H]1CCCN1C(=O)[C@@H](NC(=O)[C@H](CC(=O)O)NC(=O)[C@H](CO)NC(=O)[C@H](Cc1ccccc1)NC(=O)[C@@H](N)CO)[C@@H](C)CC)C(=O)NCC(=O)N[C@@H](CO)C(=O)N[C@@H](CCC(=O)O)C(=O)N[C@@H](CC(N)=O)C(=O)N[C@@H](CO)C(=O)N[C@@H](CCC(=O)O)C(=O)O [S-15-E] (H-SFSDIPNPIGSENSE-OH),–
2.21 ± 0.53%,–,CSCC[C@H](NC(=O)[C@@H](NC(=O)[C@@H](NC(=O)[C@@H]1CCCN1C(=O)[C@H](CCC(N)=O)NC(=O)[C@H](C)NC(=O)[C@H](CCC(N)=O)NC(=O)[C@H](CS)NC(=O)[C@H](CO)NC(=O)[C@H](CCCCN)NC(=O)[C@H](C)NC(=O)[C@@H]1CCCN1C(=O)[C@@H](N)C(C)C)[C@@H](C)O)[C@@H](C)O)C(=O)O [V-13-M] (H-VPAKSCQAQPTTM-OH),–

# The remaining lines, values behind:
SMILES,RP-HPLC Estimation AP (%) (Caco-2 cell monolayer),RP-HPLC Estimation BL (%) (Caco-2 cell monolayer),"viability at 24 h, 50 µg/mL [1]"
CSCC[C@H](NC(=O)[C@@H](NC(=O)[C@@H](NC(=O)[C@@H]1CCCN1C(=O)[C@H](CCC(N)=O)NC(=O)[C@H](C)NC(=O)[C@H](CCC(N)=O)NC(=O)[C@H](CS)NC(=O)[C@H](CO)NC(=O)[C@H](CCCCN)NC(=O)[C@H](C)N)[C@@H](C)O)[C@@H](C)O)C(=O)O [A-11-M] (H-AKSCQAQPTTM-OH),44.96 ± 9.09%,0.16 ± 0.02%,–
CC[C@H](C)[C@H](NC(=O)[C@@H]1CCCN1C(=O)[C@H](CC(N)=O)NC(=O)[C@@H]1CCCN1C(=O)[C@@H](NC(=O)[C@H](CC(=O)O)NC(=O)[C@H](CO)NC(=O)[C@H](Cc1ccccc1)NC(=O)[C@H](CO)NC(=O)[C@@H]1CCCN1C(=O)[C@H](C)N)[C@@H](C)CC)C(=O)NCC(=O)N[C@@H](CO)C(=O)N[C@@H](CCC(=O)O)C(=O)N[C@@H](CC(N)=O)C(=O)N[C@@H](CO)C(=O)O [A-16-S] (H-APSFSDIPNPIGSENS-OH),3.22 ± 0.00%,–,–
CC[C@H](C)[C@H](NC(=O)[C@@H]1CCCN1C(=O)[C@H](CC(N)=O)NC(=O)[C@@H]1CCCN1C(=O)[C@@H](NC(=O)[C@H](CC(=O)O)NC(=O)[C@H](CO)NC(=O)[C@H](Cc1ccccc1)NC(=O)[C@H](CO)NC(=O)[C@@H]1CCCN1C(=O)[C@H](C)N)[C@@H](C)CC)C(=O)NCC(=O)N[C@@H](CO)C(=O)N[C@@H](CCC(=O)O)C(=O)N[C@@H](CC(N)=O)C(=O)N[C@@H](CO)C(=O)N[C@@H](CCC(=O)O)C(=O)O [A-17-E] (H-APSFSDIPNPIGSENSE-OH),68.4 ± 4.6%,0.05 ± 0.03%,108 ± 13.2%
CC[C@H](C)[C@H](NC(=O)[C@H](CCCCN)NC(=O)[C@H](CC(=O)O)NC(=O)[C@H](CCC(N)=O)NC(=O)[C@H](CC(C)C)NC(=O)[C@H](CCC(=O)O)NC(=O)[C@@H](N)CC(=O)O)C(=O)N[C@@H](Cc1c[nH]cn1)C(=O)N1CCC[C@H]1C(=O)N[C@@H](Cc1ccccc1)C(=O)O [D-10-F] (H-DELQDKIHPF-OH),4.17 ± 0.27%,–,–
CC[C@H](C)[C@H](NC(=O)[C@H](CCCCN)NC(=O)[C@H](CC(=O)O)NC(=O)[C@H](CCC(N)=O)NC(=O)[C@H](CC(C)C)NC(=O)[C@H](CCC(=O)O)NC(=O)[C@H](CC(=O)O)NC(=O)[C@@H](N)CCC(=O)O)C(=O)N[C@@H](Cc1c[nH]cn1)C(=O)N1CCC[C@H]1C(=O)N[C@@H](Cc1ccccc1)C(=O)O [E-11-F] (H-EDELQDKIHPF-OH),88.28 ± 5.89%,0.21 ± 0.01%,112 ± 13.5%
CC[C@H](C)[C@H](NC(=O)[C@@H]1CCCN1C(=O)[C@H](CC(N)=O)NC(=O)[C@@H]1CCCN1C(=O)[C@@H](NC(=O)[C@H](CC(=O)O)NC(=O)[C@H](CO)NC(=O)[C@@H](N)Cc1ccccc1)[C@@H](C)CC)C(=O)NCC(=O)N[C@@H](CO)C(=O)N[C@@H](CCC(=O)O)C(=O)N[C@@H](CC(N)=O)C(=O)N[C@@H](CO)C(=O)N[C@@H](CCC(=O)O)C(=O)O [F-14-E] (H-FSDIPNPIGSENSE-OH),3.07 ± 0.60%,–,–
CC[C@H](C)[C@H](NC(=O)[C@@H]1CCCN1C(=O)CN)C(=O)N[C@H](C(=O)N[C@@H](CC(C)C)C(=O)N[C@@H](CC(N)=O)C(=O)N1CCC[C@H]1C(=O)N[C@@H](Cc1c[nH]c2ccccc12)C(=O)N[C@@H](CC(=O)O)C(=O)N[C@@H](CCC(N)=O)C(=O)N[C@H](C(=O)N[C@@H](CCCCN)C(=O)N[C@@H](CCCNC(=N)N)C(=O)O)C(C)C)C(C)C [G-13-R] (H-GPIVLNPWDQVKR-OH),3.19 ± 0.27%,–,–
